From patent publication US20220324909A1, “THERAPEUTIC PEPTIDES” (COHBAR, INC., priority 2019, published 2022)
Non-standard residues stand in square brackets, D forms with d. No end group written: not given here.

Columns and labels:
C2C12 cells [1] = assay: Cellular ROS levels induced by TBHP in C2C12 cells (DCFDA); format: cell-based, mouse; details: peptide 10 μM 18-20 hours, then TBHP 100 μM 1 hour; relative to TBHP control
Protocol: The protective or synergistic effect of the peptides on cellular levels of reactive oxygen species (ROS) induced by oxidative stress can be assessed using an assay of ROS in cultured cells such as mouse myoblasts exposed to a suitable oxidative stress. Peptides were initially prepared as 10 mM stock in DMSO, diluted to 1 mM in H2O, and added at a final concentration of 10 μM (0.1% DMSO). […] TBHP was used at final concentration of 100 μM. Sulforaphane at final concentration of 10 μM was used as a protective control against TBHP induced ROS production. […] C2C12 cells were grown in DMEM supplemented with 20% FBS with 100 IU/ml penicillin and 100 μg/ml streptomycin. […] C2C12 cells were seeded at 7,500 cells per well on 96-well plates. […] After 18-20 hours of incubation the cells were loaded with DCFDA for 45 min. TBHP at 100 μM was then added to the appropriate wells for 1 hour. ROS activity was determined using a DCFDA Cellular ROS Detection Assay kit (Abcam, Cambridge, Mass.) according to the manufacturer's instructions. Fluorescence in each sample well on the plate was measured using a Cytation 3 plate reader at Ex/Em=485/535 nm (BioTek, Winooski, Vt.). Activity was calculated relative to TBHP control. The relative standard deviation of the sulforaphane control was <20%. The ROS level produced by the sulforaphane control in the presence of TBHP was 52% of the TBHP control.

C2C12 cells [2] = assay: Glucose utilization in cultured C2C12 cells and insulin dependence; format: cell-based, mouse; details: 22 h; for Glucose Utilization, Percent of Control Activity No Insulin: peptide 10 μM alone, glucose in medium relative to untreated cells; for Glucose Utilization, Percent of Control Activity With Insulin: peptide 10 μM with 5-20 nM insulin, glucose in medium relative to insulin treated cells
Excerpt: The effect of the peptides on glucose homeostasis can be assessed using an assay to monitor glucose utilization by cultured cells such as mouse myotubes. […] C2C12 mouse muscle cell line was purchased from Millipore Sigma (Saint Louis, Mo.). […] Three days after plating the medium was removed and with Differentiation Medium (DMEM/low glucose (1 g/L)+2% Horse Serum+antibiotics) added. […] After 5 days of differentiation, the medium was removed from myotube cultures and replaced with Assay Medium (DMEM/low glucose (1 g/L)+antibiotics). […] Following the 5 h incubation the medium was removed and fresh Assay Medium containing compounds added; 10 μM peptide in absence or presence of 5-20 nM insulin, or 1 mM metformin as a potent stimulator of glucose utilization. […] Following 22 h incubation, conditioned medium from each well was transferred to a fresh 96-well plate. Glucose concentrations in the medium were determined using a Glucose Assay kit (Abcam; Cambridge, Mass.) according to the manufacturer's instructions; absorbance measured using a Cytation 3 plate reader at 570 nm (BioTek, Winooski, Vt.). Absorbance values were expressed as percent control activity relative to untreated treated cells (no insulin) for 10 μM peptide alone or 5-20 nM insulin treated cells (with insulin) for 10 μM peptide in presence of 5-20 nM insulin. Untreated cells were used as reference for basal glucose utilization. The relative standard deviation from plate to plate of untreated control was <10%. Metformin at 1 mM was used as a potent control for increasing glucose utilization. Glucose levels for metformin (1 mM) treatment were <10% of the untreated control value. Data are presented as averages values from 2-3 independent experiments with each data point performed in triplicate.

Male DIO mice = assay: Metabolic parameters in diet induced obese (DIO) mice, Example 16; format: in vivo, mouse; details: 5 mg/kg twice daily intraperitoneal, 10 days, N = 8
Protocol: Male C57BL/6 mice were maintained on a high fat diet for 18 weeks to develop diet induced obesity. Animals were randomized to treatment groups based on blood glucose levels and body weight. The peptides of the invention were administered to groups of male DIO mice twice daily by intraperitoneal injection at a dose of 5 mg/kg/dose for 10 days (N=8 animals per treatment group). An additional group of male DIO mice (n=8) received vehicle (water) alone administered twice daily by intraperitoneal injection. Body weight, blood glucose levels and food intake were monitored. Body mass distribution (fat vs lean) was determined by quantitative whole body NMR prior to dosing and at the end of dosing.

Apelin Receptor (APJ) [3] = target: T1, Apelin Receptor (APJ) (Homo sapiens, UniProt P35414); assay: cAMP levels in CHO-K1 AGTRL1 Gi cells, single concentration (HitHunter); format: cell-based; set-up: host or cells: CHO-K1 AGTRL1 Gi cells; details: peptide 10 μM with 10 μM forskolin, 30 min; 500 nM Pyr-Apelin-13 response = 100%
T1 sequence (P35414 1-380): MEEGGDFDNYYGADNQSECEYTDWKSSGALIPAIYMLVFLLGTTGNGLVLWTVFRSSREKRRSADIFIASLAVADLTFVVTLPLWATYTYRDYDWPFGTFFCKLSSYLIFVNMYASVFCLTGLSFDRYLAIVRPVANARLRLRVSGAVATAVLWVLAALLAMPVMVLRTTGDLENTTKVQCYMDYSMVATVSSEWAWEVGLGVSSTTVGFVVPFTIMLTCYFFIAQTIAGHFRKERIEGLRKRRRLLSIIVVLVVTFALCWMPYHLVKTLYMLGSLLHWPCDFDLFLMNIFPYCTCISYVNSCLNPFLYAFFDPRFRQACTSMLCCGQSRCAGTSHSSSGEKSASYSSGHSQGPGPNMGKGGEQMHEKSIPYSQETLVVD
Protocol: The effect of the peptides on activation of Apelin Receptor (APJ) can be assessed using an assay to monitor inhibition of cAMP expression in cultured cells overexpressing APJ such as CHO-K1, derived from Chinese hamster ovary. Peptides were initially prepared as 30 mM stock in DMSO and diluted to 3 mM in H2O or directly as 3 mM stock in H2O; used at a final concentration of 10 μM (0-0.1% DMSO). […] CHO-K1 AGTRL1 Gi cells stably overexpressing APJ were purchased from Eurofins-DiscoverX (Fremont, Calif.). CHO-K1 AGTRL1 Gi cells were seeded onto 384-well plates in standard culture medium (F12K+10% Fetal Bovine Serum+antibiotics) at 10,000 cells/well and allowed to adhere overnight at 37° C. in a humidified atmosphere of 5% CO2/95% air. […] Following 30 min incubation at 37° C., cAMP levels in response to various treatments were quantified using HitHunter cAMP kit according to manufactures protocol (Eurofins-DiscoverX); chemiluminescent signal was measured using a Cytation 3 plate reader (BioTek, Winooski, Vt.).

Apelin Receptor (APJ) [4] = target: T1, Apelin Receptor (APJ); assay: β-Arrestin recruitment in CHO-K1 AGTRL1 β-Arrestin cells (PathHunter); format: cell-based; set-up: host or cells: CHO-K1 AGTRL1 β-Arrestin cell line; details: peptide 10 μM, 90 min; 500 nM Apelin-13 response = 100%
Protocol: The effect of the peptides on activation of Apelin Receptor (APJ) can be assessed using an assay to monitor β-Arrestin recruitment in cultured cells overexpressing APJ such as CHO-K1, derived from Chinese hamster ovary. β-Arrestin recruitment assays were performed by Eurofins-DiscoverX (Fremont, Calif.) using CHO-K1 AGTRL1 β-Arrestin cell line (co-expressing ProLink tagged human APJ and Enzyme Acceptor tagged β-Arrestin) and PathHunter detection kit. Peptides were initially prepared either as 10 mM stock in DMSO and used at a final concentration of 10 μM (0.1% DMSO). CHO-K1 AGTRL1 β-Arrestin cells were seed onto 384-well plates in standard medium. […] Following 90 min incubation at 37° C., β-Arrestin recruitment in response to various treatments was quantified using a chemiluminescent complementation reporter assay to measure association of tagged human APJ (ProLink tag) and tagged β-Arrestin (Enzyme Acceptor tag).

Compound	Cellular ROS Levels Induced by TBHP, Percent of Control (C2C12 cells [1]) [%]	Glucose Utilization, Percent of Control Activity No Insulin (C2C12 cells [2]) [%]	Glucose Utilization, Percent of Control Activity With Insulin (C2C12 cells [2]) [%]	Difference from Vehicle Control: Decrease from Baseline in Blood Glucose (Male DIO mice) [mg/dL]	Difference from Vehicle Control: Decrease from Baseline in Body Weight (Male DIO mice) [%]	Difference from Vehicle Control: Decrease from Baseline in Fat Mass (Male DIO mice) [g]	cAMP Levels, Percent of Pyr-Apelin-13 Control Activity (Apelin Receptor (APJ) [3]) [%]	β-Arrestin Recruitment, Percent of Apelin-13 Control Activity (Apelin Receptor (APJ) [4]) [%]
16 (RRMMGMVFQCLSG[dA]) [compound 16]	106.6	99.7	88.4	–	–	–	–	–
10 (RRMMGMVYQCLCG[dA]; cysteine pairing not given here) [compound 10]	102.3	102.6	76.3	-8.37	−5.47	-2.16	–	–
CSCC[C@H](NC(=O)CNC(=O)[C@H](CCSC)NC(=O)[C@H](CCSC)NC(=O)[C@H](CCCNC(=N)N)NC(=O)[C@@H](N)CCCNC(=N)N)C(=O)N[C@H](C(=O)N[C@@H](Cc1ccccc1)C(=O)N[C@@H](CCC(N)=O)C(=O)N[C@@H](CO)C(=O)N[C@@H](CC(C)C)C(=O)N[C@@H](CS)C(=O)NCC(=O)N[C@H](C)C(=O)O)C(C)C [compound 15]	105.9	103	106.9	–	–	–	105	40
17 (RRMMGMVFQSLSG[dA]) [compound 17]	113.6	102.6	96.2	–	–	–	–	–
12 (RRMMGMVEQCLCG[dA]; cysteine pairing not given here) [compound 12]	105	102.3	84.5	-6.75	−2.89	-1.73	–	–
18 (RRXXGXVFQCLCGA; (3)..(3) Xaa is Norleucine; (4)..(4) Xaa is Norleucine; (6)..(6) Xaa is Norleucine; (14)..(14) D-Ala) [compound 18]	109.4	103.6	122.1	–	–	–	–	–
19 (RRMVFQCLCG[dA]; cysteine pairing not given here) [compound 19]	92	100.1	76.5	–	–	–	–	–
13 (RRMMGMVFQELCG[dA]) [compound 13]	106.8	104.4	97.8	–	–	–	–	–
11 (RRMMGMVAQCLCGA) [compound 11]	100.6	107.2	84.5	-4.91	−4.05	-2.34	–	–
14 (RRMMGMVFQCLEG[dA]) [compound 14]	105.1	102.4	112.3	–	–	–	–	–
CSCC[C@H](NC(=O)CNC(=O)[C@H](CCSC)NC(=O)[C@H](CCSC)NC(=O)[C@H](CCCNC(=N)N)NC(=O)[C@H](CCCNC(=N)N)NC(=O)[C@@H](N)CCSC)C(=O)N[C@H](C(=O)N[C@@H](Cc1ccccc1)C(=O)N[C@@H](CCC(N)=O)C(=O)N[C@@H](CS)C(=O)N[C@@H](CC(C)C)C(=O)N[C@@H](CS)C(=O)NCC(=O)N[C@@H](CC(C)C)C(=O)O)C(C)C [compound 7]	98.6	98.1	100.7	-20.0	−3.19	-0.84	109	91
8 (RRMMGMVFQCLCG[dA]; cysteine pairing not given here) [compound 8]	102.1	90.8	85.5	-16.9	−8.01	-3.88	–	–
